Experimental data taken from PubChem BioAssay (NCI).
Where “and” joins values, the source holds several entries; their conditions need not be identical. Equal values may be shown once.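 Results reflect a 48-hour exposure of cells in 96-well plates to compound at five concentrations. GI50 marks 50% less growth. TGI: total growth inhibition.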

Tests used:
Test in all cases: growth of human tumour cells (NCI), 48 h
[1] = tested on: K-562 leukemia
[2] = tested on: SK-MEL-2 melanoma
[3] = tested on: DMS 114 small cell lung
[4] = tested on: A549 NSCLC
[5] = tested on: KM20L2 colon
[6] = tested on: IGROV1 ovarian
[7] = tested on: SNB-78 CNS
[8] = tested on: HCT-116 colon
[9] = tested on: HOP-62 NSCLC
[10] = tested on: SF-539 CNS
[11] = tested on: MDA-MB-435

SMILES	TGI [1]	TGI [2] [µM]	TGI [3] [µM]	TGI [4] [µM]	TGI [5] [µM]	TGI [6] [µM]	TGI [7] [µM]	TGI [8] [µM]	TGI [9] [µM]	TGI [10] [µM]	GI50 [1] [µM]	GI50 [2] [µM]	GI50 [4] [µM]	TGI [11] [µM]	GI50 [6] [µM]	GI50 [11] [µM]	GI50 [8] [µM]	GI50 [9] [µM]	GI50 [10] [µM]
CCOC(=O)CC1=NC(=Nc2cc(Cl)ccc2Cl)SC1	> 100 µM	> 100	> 100	> 100	> 100	> 100	> 100	> 100	> 100	> 100									
CCOC(=O)C1=C(NC(C)(C)C)OCC1=O	> 100 µM	> 100		> 100	> 100	> 100	> 100	> 100	> 100	> 100									
COc1ccc(CCNCc2cccc(OC)c2OC)cc1OC	> 100 µM	> 100	> 100	> 100	> 100	> 100	> 100		> 100										
O=C(N/C(=C\c1ccc(Br)cc1)c1nc2ccccc2s1)c1ccccc1	> 100 µM	> 100	> 100	> 100	> 100	> 100	> 100	> 100		> 100									
COC(=O)C1=C(c2cc(OC)c(OC)c(OC)c2)OC(c2cc(OC)c(OC)c(OC)c2)C1COC(C)=O (centres undefined)	> 100 µM		> 100	> 100	> 100	> 100	> 100	> 100	> 100	> 100									
O=C1OC(c2ccccc2)=N/C1=C\c1c(O)cc(O)cc1O	> 100 µM	> 100	> 100	> 100	> 100	> 100	> 100	> 100		> 100									
CCc1ccccc1-n1c2nc(=O)n(C)c(=O)c-2nc2ccccc21	31.8 µM	39.1	14.2	27.6		35.4	38.5	25.8	> 100	27.7									
CC(=O)OCC(OC(C)=O)C(OC(C)=O)C(OC(C)=O)C(=O)CNn1c(-c2ccccc2)nc2ccc(Br)cc2c1=O (centres undefined)	> 100 µM	> 100	> 100	> 100	> 100		> 100	> 100	> 100	> 100									
CN(/N=C/c1ccnc2ccccc12)c1ccc([N+](=O)[O-])cc1[N+](=O)[O-]	> 100 µM	79.1	> 100	> 100	> 100	> 100	> 100		89.1	> 100									
CC[C@@H](C)[C@H]([C@H](CC(=O)N1CCC[C@@H]1[C@@H](OC)[C@H](C)C(=O)N[C@H](Cc1ccccc1)c1nccs1)OC)N(C)C(=O)[C@H](NC(=O)[C@@H](C(C)C)N(C)C)C(C)C	2.86 µM and > 4.64 µM		0.00123		0.000234			0.00467		0.00161	0.000425	< 0.0229	0.000425	2.94e-06	0.000425				
O=C(CCC(=O)N/N=C/c1ccccc1O)N/N=C/c1ccccc1O	> 100 µM	81.3	> 100	> 100	> 100	> 100	> 100	> 100											
C[C@@]1(c2ncncc2F)NC(=O)c2cc(-c3cn[nH]c3)ccc21	> 100 µM	68.2		> 100		> 100		> 100	> 100	32.7	46.8	23.8	28.2	> 100	21.4	19.9	5.48	18.7	5.61
CCOC(=O)N1C/C(=C/c2ccc(OC)cc2)C(=O)/C(=C/c2ccc(OC)cc2)C1	> 100 µM	> 56.3		6.96		> 21.2		0.579	5.11	3.7	1.72	13.5	2.33	4.71	2.44	1.19	0.21	2.1	1.81
COc1ccc(/C(Cl)=C(\C=O)c2ccc(Br)cc2)cc1OC	> 100 µM	74.4		> 100	> 100	> 100	> 100		> 100	67.1									
COc1ccc2c(c1OC)-c1c(c3ccc([N+](=O)[O-])cc3c(=O)n1CCCN=[N+]=[N-])C2=O	> 100 µM	> 100		> 100		23.9		38.2	92.8	40.3	23.3	> 100	4.18	> 100	1.02	72.4	2.93	5.02	5.23
Cc1ccccc1-n1c(/C=C\c2ccccn2)nc2ccccc2c1=O	90.2 µM	38.5		> 100		63.9		22	> 100	55	4.42	14.4	26	53	13.2	8.23	6.87	47.4	18.6
c1ccc2cc(OCC3CO3)c(OCC3CO3)cc2c1 (centres undefined)	25.1 µM	29		30		11.1		3.11	13.6	9.13				21.7					
COC(=O)c1c2c(c(C)[n+]([O-])c1C)C(=O)C(NCc1cccc(OC)c1)=CC2=O	> 100 µM	7.49		9.36		4.11		10	25.3	4.15	2.98	2.55	2.35	3.05	1.69	1.67	2.53	3.07	2.02
CCCCCCCCCCCCOC1C(C(COC2OC(C(O)CN3CCCCC3)C3OC(C)(C)OC23)NC(=O)Nc2ccccc2)OC2OC(C)(C)OC21 (centres undefined)	5.65 µM	41.6		38		39.5		12.7	32.9	31.4	2.06	19.6	11.4	20.8	16.9	7.02	4.54	16.1	16.6
O=C(O)c1ccc(S(=O)(=O)N=Nc2c(O)[nH]c3ccccc23)cc1	> 100 µM	> 100		> 100		> 100		> 100	> 100	> 100				> 100					
